Here are results for 4 compounds from patent US9381148B2, “Composition comprising particulate zinc material with a high relative zinc lability” (priority 2003, dated 2016).

The text on series [1]: Those materials with high potential to bind to the PZM surface are ZBM's that form only sparingly soluble salts with zinc in water. “Sparingly soluble” refers to zinc salts with 1 gram(g)/100 g water solubility or less. These are the materials that form precipitated surface species on the PZM that interfere with zinc lability. A summary of the solubilities of common zinc salts is shown below: […]

For series [2] the following is noted: zinc salt of the counterion; reference A, selected literature data for 25–30° C.; cited from earlier work.

Like-named read-outs stand apart in the source and are kept apart here.

Consider `O=C(O)c1ccccc1O` [Salicylate], for which the “Solubility (g/100 g water)” value in series [1] (pH 7) is given as 0.29 g/100 g water.

For the compound `[O-][Cl+3]([O-])([O-])O` [Perchlorate], the “Solubility (g/100 g water)” value in series [2] is 113.5 g/100 g water.

With Laurate, the “Solubility (g/100 g water)” value in series [1] (zinc salt of the counterion, reference B, commercially sourced materials (Pfaltz & Bauer), water at pH 7 and room temperature, filtered, ICP) was 0.012 g/100 g water.

As for Phosphate, the “Solubility (g/100 g water)” value in series [1] (pH 7) is 0.0013 g/100 g water.
